Patent US12642270B2, “Substituted thiophene carboxamides, thiophene carboxylic acids and derivatives thereof” (Bayer Aktiengesellschaft, priority 2019, dated 2026)

Assay: Log P by HPLC on reversed phase columns (EEC directive 79/831 Annex V.A8)
Assay type: physicochemical
Details: method marked [a]
Summary of the method: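 Reversed-phase HPLC per EEC 79/831 Annex V.A8, LC-UV with 10→95% acetonitrile linear gradient; eluent [a] 0.1% formic acid (acidic), [b] 0.001 M ammonium acetate (neutral), [c] 0.1% phosphoric acid (acidic). Calibrated with C3–C16 straight-chain alkan-2-ones, linear interpolation of retention times; multiple values joined by "+".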

Row | Compound | LogP
1 | COC(=O)C1(NC(=O)c2sc(C#N)c(Cl)c2Br)CC1 [1.0667] | 2.42^[a]
2 | COC(=O)C(C)(C)NC(=O)c1sc(C#N)c(Cl)c1Br [1.0668] | 2.90^[a]
3 | CCOC(=O)C(NC(=O)c1sc(C#N)c(Cl)c1Br)C(C)C (centres unmarked) [1.0669] | 3.90^[a]
4 | COC(=O)C(NC(=O)c1sc(C#N)c(Cl)c1Br)C1CC1 (centres unmarked) [1.0670] | 3.07^[a]
5 | CCOC(=O)C(Cc1ccccc1)NC(=O)c1sc(C#N)c(Cl)c1Br (centres unmarked) [1.0671] | 4.14^[a]
6 | COC(=O)C1(NC(=O)c2sc(C#N)c(Cl)c2Br)CCC1 [1.0672] | 2.96^[a]
7 | CCOC(=O)C1(NC(=O)c2sc(Br)c(C#N)c2Cl)CCC1 [1.0673] | 3.30^[a]
8 | COC(=O)C1(NC(=O)c2sc(Br)c(C#N)c2Cl)CCC1 [1.0674] | 2.89^[a]
9 | CCOC(=O)C(Cc1ccccc1)NC(=O)c1sc(Br)c(C#N)c1Cl (centres unmarked) [1.0675] | 4.06^[a]
10 | COC(=O)C(NC(=O)c1sc(Br)c(C#N)c1Cl)C1CC1 (centres unmarked) [1.0676] | 2.99^[a]
11 | O=C(CNC(=O)c1sc(Br)c(Br)c1Cl)OC1CCOC1 (centres unmarked) [1.0677] | 2.84^[a]
12 | O=C(CNC(=O)c1sc(Br)c(Br)c1F)OC1CCOC1 (centres unmarked) [1.0678] | 2.53^[a]
13 | Cc1c(C(=O)NCC(=O)OC2CCOC2)sc(C#N)c1Br (centres unmarked) [1.0679] | 2.12^[a]
14 | COC(=O)C1(NC(=O)c2sc(C#N)c(Br)c2C)CCC1 [1.0680] | 2.71^[a]
15 | COC(=O)CNC(=O)c1sc(Cl)c(Cl)c1C#N [1.0681] | 2.17^[a]
16 | COC(=O)C1(NC(=O)c2sc(Cl)c(Cl)c2C#N)CC1 [1.0682] | 2.33^[a]
17 | CCOC(=O)C1(NC(=O)c2sc(C#N)c(Cl)c2Br)CCC1 [1.0683] | 3.34^[a]
18 | COC(=O)C(C)(C)NC(=O)c1sc(Cl)c(Cl)c1C#N [1.0684] | 2.73^[a]
19 | CCOC(=O)C(Cc1ccccc1)NC(=O)c1sc(Cl)c(Cl)c1C#N (centres unmarked) [1.0685] | 3.98^[a]
20 | COC(=O)C1(NC(=O)c2sc(Cl)c(Cl)c2C#N)CCC1 [1.0686] | 2.79^[a]
21 | CCOC(=O)C1(NC(=O)c2sc(Cl)c(Cl)c2C#N)CCC1 [1.0687] | 3.16^[a]

Row | Compound | LogP
22 | N#CCNC(=O)c1sc(Cl)c(Cl)c1C#N [1.0688] | 2.04^[a]
23 | CCOC(=O)CNC(=O)c1sc(Br)c(C#N)c1Cl [1.0689] | 2.57^[a]
24 | COC(=O)CNC(=O)c1sc(Br)c(C#N)c1Cl [1.0690] | 2.19^[a]
25 | CCOC(=O)C1(NC(=O)c2sc(Br)c(C#N)c2Cl)CC1 [1.0691] | 2.71^[a]
26 | COC(=O)C1(NC(=O)c2sc(Br)c(C#N)c2Cl)CC1 [1.0692] | 2.37^[a]
27 | COC(=O)C(C)(C)NC(=O)c1sc(Br)c(C#N)c1Cl [1.0693] | 2.84^[a]
28 | CCOC(=O)C(NC(=O)c1sc(Br)c(C#N)c1Cl)C(C)C (centres unmarked) [1.0694] | 3.83^[a]
29 | COC(=O)C(NC(=O)c1sc(Cl)c(Cl)c1C#N)C1CC1 (centres unmarked) [1.0695] | 2.89^[a]
30 | CCOC(=O)CNC(=O)c1sc(F)c(Br)c1Br [1.0697] | 3.01^[a]
31 | COC(=O)CNC(=O)c1sc(F)c(Br)c1Br [1.0698] | 2.60^[a]
32 | O=C(NC1(C(=O)O)CC1)c1cc(Br)c(C(F)(F)F)s1 [1.0700] | 2.44^[a]
33 | CCOC(=O)C(C)(C)NC(=O)c1sc(Cl)c(Br)c1Br [1.0701] | 4.30^[a]
34 | O=C(NC1(C(=O)O)CC1)c1sc(Cl)c(Br)c1F [1.0702] | 2.15^[a]
35 | O=C(NC1(C(=O)O)CC1)c1sc(Br)c(Cl)c1F [1.0703] | 2.14^[a]
36 | CCCOC(=O)C1(NC(=O)c2sc(Br)c(Cl)c2C)CC1 [1.0704] | 3.62^[a]
37 | Cc1c(C(=O)NC2(C(=O)OC3CCC3)CCC2)sc(Br)c1Cl [1.0705] | 4.33^[a]
38 | CCOC(=O)C1(NC(=O)c2sc(F)c(Br)c2Br)CC1 [1.0706] | 3.17^[a]
39 | COC(=O)C1(NC(=O)c2sc(F)c(Br)c2Br)CC1 [1.0707] | 2.76^[a]
40 | COC(=O)C(C)(C)NC(=O)c1sc(F)c(Br)c1Br [1.0708] | 3.38^[a]
41 | CCOC(=O)C(NC(=O)c1sc(F)c(Br)c1Br)C(C)C (centres unmarked) [1.0709] | 4.48^[a]
42 | COC(=O)C(NC(=O)c1sc(F)c(Br)c1Br)C1CC1 (centres unmarked) [1.0710] | 3.55^[a]

Row | Compound | LogP
43 | CCOC(=O)C(Cc1ccccc1)NC(=O)c1sc(F)c(Br)c1Br (centres unmarked) [1.0711] | 4.67^[a]
44 | COC(=O)C1(NC(=O)c2sc(F)c(Br)c2Br)CCC1 [1.0712] | 3.41^[a]
45 | CCOC(=O)C1(NC(=O)c2sc(F)c(Br)c2Br)CCC1 [1.0713] | 3.88^[a]
46 | N#CCNC(=O)c1sc(F)c(Br)c1Br [1.0714] | 2.39^[a]
47 | CCOC(=O)CNC(=O)c1cc(Br)c(C(F)(F)F)s1 [1.0715] | 3.00^[a]
48 | COC(=O)CNC(=O)c1cc(Br)c(C(F)(F)F)s1 [1.0716] | 2.65^[a]
49 | COC(=O)C1(NC(=O)c2cc(Br)c(C(F)(F)F)s2)CC1 [1.0717] | 2.87^[a]
50 | COC(=O)C(C)(C)NC(=O)c1cc(Br)c(C(F)(F)F)s1 [1.0718] | 3.23^[a]
51 | CCOC(=O)C(NC(=O)c1cc(Br)c(C(F)(F)F)s1)C(C)C (centres unmarked) [1.0719] | 4.18^[a]
52 | COC(=O)C(NC(=O)c1cc(Br)c(C(F)(F)F)s1)C1CC1 (centres unmarked) [1.0720] | 3.41^[a]
53 | CCOC(=O)C(Cc1ccccc1)NC(=O)c1cc(Br)c(C(F)(F)F)s1 (centres unmarked) [1.0721] | 4.36^[a]
54 | COC(=O)C1(NC(=O)c2cc(Br)c(C(F)(F)F)s2)CCC1 [1.0722] | 3.33^[a]
55 | CCOC(=O)C1(NC(=O)c2cc(Br)c(C(F)(F)F)s2)CCC1 [1.0723] | 3.70^[a]
56 | N#CCNC(=O)c1cc(Br)c(C(F)(F)F)s1 [1.0724] | 2.61^[a]
57 | Cc1c(C(=O)NC2(C(=O)OC3CCC3)CCC2)sc(Cl)c1Br [1.0725] | 4.37^[a]
58 | CCOC(=O)C1(NC(=O)c2cc(Br)c(C(F)(F)F)s2)CC1 [1.0726] | 3.22^[a]
59 | CCOC(=O)C1(NC(=O)c2sc(Cl)c(Cl)c2Br)CSC1 [1.0727] | 3.95^[a]
60 | CCOC(=O)C1(NC(=O)c2sc(Br)c(Br)c2Cl)CSC1 [1.0728] | 3.97^[a]
61 | COC(=O)[C@H](CCSC)NC(=O)c1sc(C#N)c(Br)c1C [1.0729] | 3.03^[a]
62 | COC(=O)[C@H](CCSC)NC(=O)c1sc(C#N)c(Cl)c1C [1.0730] | 2.97^[a]
63 | CCOC(=O)C(CO)NC(=O)c1sc(C#N)c(Br)c1Br (centres unmarked) [1.0731] | 2.62^[a]

Results, then the compound that gave them:

Row | LogP | Compound
64 | 3.81^[a] | CCOC(=O)C(CCSC)NC(=O)c1sc(C#N)c(Br)c1Br (centres unmarked) [1.0732]
65 | 3.23^[a] | COC(=O)C(CCSC)NC(=O)c1sc(C#N)c(Br)c1Br (centres unmarked) [1.0733]
66 | 3.40^[a] | COC(=O)[C@H](CCSC)NC(=O)c1sc(C#N)c(Br)c1Br [1.0734]
67 | 3.63^[a] | COC(=O)C(CCSC)NC(=O)c1sc(Cl)c(Br)c1C (centres unmarked) [1.0735]
68 | 4.02^[a] | CCOC(=O)[C@H](CCSC)NC(=O)c1sc(Cl)c(Br)c1C [1.0736]
69 | 1.81^[a] | CNC(=O)CNC(=O)c1sc(Br)c(Br)c1F [1.0737]
70 | 2.08^[a] | CNC(=O)CNC(=O)c1sc(Cl)c(Cl)c1Br [1.0738]
71 | 2.75^[a] | CCOC(=O)CNC(=O)c1sc(C#N)c(Br)c1Br [1.0739]
72 | 3.02^[a] | CCOC(=O)C1(NC(=O)c2sc(C#N)c(Br)c2Br)CC1 [1.0740]
73 | 3.34^[a] | CCOC(=O)C(C#N)NC(=O)c1sc(Br)c(Br)c1Cl (centres unmarked) [1.0741]
74 | 2.66^[a] | CCOC(=O)C(C#N)NC(=O)c1sc(C#N)c(Br)c1C (centres unmarked) [1.0742]
75 | 3.35^[a] | CCOC(=O)C(C#N)NC(=O)c1sc(Cl)c(Cl)c1Br (centres unmarked) [1.0743]
76 | 3.38^[a] | CCOC(=O)C(C#N)NC(=O)c1sc(Cl)c(Br)c1Br (centres unmarked) [1.0744]
77 | 2.50^[a] | N#CCNC(=O)c1sc(Cl)c(Cl)c1C(F)F [1.0745]
78 | 3.55^[a] | CCOC(=O)C(C)(C)NC(=O)c1sc(Cl)c(Cl)c1C(F)F [1.0746]
79 | 3.00^[a] | COC(=O)C(NC(=O)c1sc(Cl)c(Cl)c1C(F)F)C(=O)OC [1.0748]
80 | 3.23^[a] | CCOC(=O)CN(OC)C(=O)c1sc(C#N)c(Br)c1C [1.0749]
81 | 4.04^[a] | COC(=O)[C@H](CCSC)NC(=O)c1sc(Br)c(Br)c1Cl [1.0750]

Row | LogP | Compound
82 | 3.06^[a] | COC(=O)C(CCSC)NC(=O)c1sc(C#N)c(Br)c1C (centres unmarked) [1.0751]
83 | 3.54^[a] | CCOC(=O)C(CSC)NC(=O)c1sc(C#N)c(Cl)c1Cl (centres unmarked) [1.0752]
84 | 3.97^[a] | CCOC(=O)C(CSC)NC(=O)c1sc(Cl)c(Br)c1C (centres unmarked) [1.0753]
85 | 3.37^[a] | CCOC(=O)C(CSC)NC(=O)c1sc(Cl)c(Cl)c1C#N (centres unmarked) [1.0754]
86 | 3.40^[a] | CCOC(=O)C(CSC)NC(=O)c1sc(Br)c(Br)c1C#N (centres unmarked) [1.0755]
87 | 3.94^[a] | CCOC(=O)C(CSC)NC(=O)c1sc(Br)c(Cl)c1C (centres unmarked) [1.0756]
88 | 4.89^[a] | CC(C)(C)OC(=O)C1(NC(=O)c2sc(Br)c(Br)c2Cl)CC(F)(F)C1 [1.0757]
89 | 3.23^[a] | CCOC(=O)C(C#N)NC(=O)c1sc(Cl)c(Cl)c1C (centres unmarked) [1.0758]
90 | 3.64^[a] | COC(=O)C(CCSC)NC(=O)c1sc(Br)c(Cl)c1C (centres unmarked) [1.0759]
91 | 3.66^[a] | CCOC(=O)C(C)(C)NC(=O)c1sc(Cl)c(Br)c1C [1.0760]
92 | 3.71^[a] | CCOC(=O)C(C)(C)NC(=O)c1sc(Br)c(Cl)c1C [1.0764]
93 | 4.01^[a] | CCOC(=O)[C@H](CCSC)NC(=O)c1sc(Br)c(Cl)c1C [1.0765]
94 | 4.04^[a] | COC(=O)C(CCSC)NC(=O)c1sc(Br)c(Br)c1Cl (centres unmarked) [1.0766]
95 | 3.74^[a] | COC(=O)[C@H](CCSC)NC(=O)c1sc(Cl)c(Br)c1C [1.0767]
96 | 3.60^[a] | COC(=O)[C@H](CCSC)NC(=O)c1sc(Br)c(Cl)c1C [1.0768]
97 | 3.26^[a] | CCOC(=O)C(CSC)NC(=O)c1sc(C#N)c(Br)c1C (centres unmarked) [1.0769]
98 | 3.14^[a] | COC(=O)C(CCSC)NC(=O)c1sc(Cl)c(Cl)c1C#N (centres unmarked) [1.0770]
